In one assay the target is T1, human TPO-R (Homo sapiens, UniProt P40238).
T1 construct: transfected with full length human TPO-R; expressed in transfected cells; host or cells: murine Ba/F3 cells
T1 sequence (P40238 26-635): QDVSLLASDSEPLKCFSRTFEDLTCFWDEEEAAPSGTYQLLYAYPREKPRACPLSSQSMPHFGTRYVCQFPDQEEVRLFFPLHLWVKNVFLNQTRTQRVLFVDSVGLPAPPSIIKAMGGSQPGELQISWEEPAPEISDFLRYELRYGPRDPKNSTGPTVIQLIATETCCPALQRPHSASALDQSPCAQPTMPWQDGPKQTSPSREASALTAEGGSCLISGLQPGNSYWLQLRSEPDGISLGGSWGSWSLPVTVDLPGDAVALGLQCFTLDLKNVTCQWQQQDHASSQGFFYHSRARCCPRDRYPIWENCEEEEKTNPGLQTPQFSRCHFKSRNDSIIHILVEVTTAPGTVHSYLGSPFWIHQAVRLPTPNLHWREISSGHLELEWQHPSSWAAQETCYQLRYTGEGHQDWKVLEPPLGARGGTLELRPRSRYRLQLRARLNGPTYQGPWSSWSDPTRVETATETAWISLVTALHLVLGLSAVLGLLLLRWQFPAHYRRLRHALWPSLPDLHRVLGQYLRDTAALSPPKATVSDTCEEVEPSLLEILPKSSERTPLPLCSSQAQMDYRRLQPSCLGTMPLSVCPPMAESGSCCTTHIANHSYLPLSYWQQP
Nature of the assay: thrombopoietin dependent cell proliferation assay, TPO-R transfected Ba/F3 cells (MTT). In kind it is cell-based.

Another assay has as its target T2, TPO-R (Homo sapiens, UniProt P40238).
T2 construct: made in house
T2 sequence (P40238 26-491 limits assumed): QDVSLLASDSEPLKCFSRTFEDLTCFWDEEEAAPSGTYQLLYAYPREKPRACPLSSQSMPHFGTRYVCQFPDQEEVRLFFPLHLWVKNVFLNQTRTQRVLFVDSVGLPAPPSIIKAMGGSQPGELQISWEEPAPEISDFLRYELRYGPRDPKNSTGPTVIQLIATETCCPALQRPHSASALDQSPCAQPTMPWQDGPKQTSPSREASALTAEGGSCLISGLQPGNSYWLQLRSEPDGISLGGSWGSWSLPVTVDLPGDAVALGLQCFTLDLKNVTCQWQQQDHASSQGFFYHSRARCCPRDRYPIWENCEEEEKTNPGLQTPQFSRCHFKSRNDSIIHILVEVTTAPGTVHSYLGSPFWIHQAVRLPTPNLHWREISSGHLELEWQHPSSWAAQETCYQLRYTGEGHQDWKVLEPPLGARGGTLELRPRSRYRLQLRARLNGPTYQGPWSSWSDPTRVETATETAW
Kind of assay: competition binding assay: MBP-TPO156 binding to immobilized TPO-R (ELISA). The protocol:
A variety of methods can be used to evaluate IC50 values. For example, an equilibrium binding ELISA assay, using either MBP-TPO or lacI-peptide tracer, was used to determine whether the peptides inhibit the binding of TPO to the extracellular domain of the TPO receptor. Typically, the IC50 value were determined using the free peptide. The IC50value can be determined using the free peptide, which optionally can be C-terminally amidated, or can be prepared as an ester or other carboxy amide.
Binding affinities of chemically synthesized peptides for TPO-R were measured in a competition binding assay. The wells of a microtiter plate were coated with 1 mg streptavidin, blocked with PBS/1% BSA, followed by 50 ng of biotinylated anti-receptor immobilizing antibody (Ab179). The wells were then treated with a 1:10 dilution of soluble TPO-R harvest. Various concentrations of peptide or peptide mimetic were mixed with a constant amount of a truncated form of TPO consisting of residues 1–156 fused to the C-terminus of maltose binding protein (MBP-TPO156). The peptide MBP-TPO156 mixtures were added to the TPO-R coated wells, incubated for 2 hours at 4° C. and then washed with PBS. The amount of MBP-TPO156 that was bound at equilibrium was measured by adding a rabbit anti-sera directed against MBP, followed by alkaline phosphatase conjugated goat anti-rabbit IgG. The amount of alkaline phosphatase in each well was then determined using standard methods.
The assay is conducted over a range of peptide concentrations and the results are graphed such that the y axis represents the amount of bound MBP-TPO156 and the x axis represents the concentration of peptide or peptide mimetic.
(ELISA stands for enzyme-linked immunosorbent assay.)

Setting [1] is: Table 7, dimer compounds, read-out: IC50.
Where [2] appears, read: Table 3, free peptide, read-out: Affinity (IC50).

Like-named read-outs stand apart in the source and are kept apart here. Where a SMILES comes first, the peptide text is derived from it. Where no end group is shown, it is not given here.

Protocol for human TPO-R: Bioactivity of the peptides can be measured using a thrombopoietin dependent cell proliferation assay. Murine IL-3 dependent Ba/F3 cells were transfected with full length human TPO-R. In the absence of IL-3 (WEHI-3 conditioned media), these cells are dependent on TPO for proliferation.
The cells were grown in complete RPMI-10 media, containing 10% WEHI-3 conditioned media, then washed twice in PBS, resuspended in media which lacked WEHI-3 conditioned media, and added to wells containing dilutions of peptide or TPO at 2×10^4 cells/well. The cells were incubated for 48 hours at 37° C. in a humidified 5% Co2 atmosphere and metabolic activity was assayed by the reduction of MTT to formazan, with absorbance at 570 nm measured on an ELISA plate reader.

One may read the EC50 as the concentration at which the effect is half-maximal. As for `CC[C@H](C)[C@@H]1NC(=O)[C@@H](N)CSSC[C@@H](C(N)=O)NC(=O)[C@H](C)NC(=O)[C@H](CCCNC(=N)N)NC(=O)[C@H](C)NC(=O)[C@H](C)NC(=O)[C@H](CC(C)C)NC(=O)[C@H](Cc2c[nH]c3ccccc23)NC(=O)[C@H](CCC(N)=O)NC(=O)[C@H](CCCNC(=N)N)NC(=O)[C@H](CC(C)C)NC(=O)[C@H]([C@@H](C)O)NC(=O)[C@@H]2CCCN2C(=O)CNC(=O)[C@H](CCC(=O)O)NC1=O` (HELM PEPTIDE1{C.I.E.G.P.T.L.R.Q.W.L.A.A.R.A.C.[am]}$PEPTIDE1,PEPTIDE1,1:R3-16:R3$$$V2.0), the EC50 at human TPO-R (Table 9, read-out: EC50 (nM) Prolif.) is at most 500 nM.

Broadly, the IC50 is the midpoint of a concentration-inhibition curve. For `CC[C@H](C)[C@H](NC(=O)[C@H](Cc1c[nH]c2ccccc12)NC(=O)[C@H](CCC(=O)O)NC(=O)[C@H](CCCNC(=N)N)NC(=O)[C@H](CC(C)C)NC(=O)[C@@H](NC(=O)[C@@H]1CCCN1C(=O)CNC(=O)[C@H](CC(=O)O)NC(C)=O)[C@@H](C)O)C(=O)N[C@@H](CO)C(=O)N[C@@H](Cc1ccccc1)C(=O)N[C@@H](CSSC[C@H](NC(=O)[C@H](Cc1ccccc1)NC(=O)[C@H](CO)NC(=O)[C@@H](NC(=O)[C@H](Cc1c[nH]c2ccccc12)NC(=O)[C@H](CCC(=O)O)NC(=O)[C@H](CCCNC(=N)N)NC(=O)[C@H](CC(C)C)NC(=O)[C@@H](NC(=O)[C@@H]1CCCN1C(=O)CNC(=O)[C@H](CC(=O)O)NC(C)=O)[C@@H](C)O)[C@@H](C)CC)C(N)=O)C(N)=O` (HELM PEPTIDE1{[ac].D.G.P.T.L.R.E.W.I.S.F.C.[am]}|PEPTIDE2{[ac].D.G.P.T.L.R.E.W.I.S.F.C.[am]}$PEPTIDE1,PEPTIDE2,13:R3-13:R3$$$V2.0; C-terminus assumed), on TPO-R (setting [1]), the IC50 is at most 500 nM.

In the case of `CC[C@H](C)[C@H](NC(=O)[C@H](Cc1c[nH]c2ccccc12)NC(=O)[C@H](CCC(=O)O)NC(=O)[C@H](CCCNC(=N)N)NC(=O)[C@H](CC(C)C)NC(=O)[C@@H](NC(=O)[C@@H]1CCCN1C(=O)CNC(C)=O)[C@@H](C)O)C(=O)N[C@@H](CO)C(=O)N[C@@H](Cc1ccccc1)C(=O)N[C@@H](CSSC[C@H](NC(=O)[C@H](Cc1ccccc1)NC(=O)[C@H](CO)NC(=O)[C@@H](NC(=O)[C@H](Cc1c[nH]c2ccccc12)NC(=O)[C@H](CCC(=O)O)NC(=O)[C@H](CCCNC(=N)N)NC(=O)[C@H](CC(C)C)NC(=O)[C@@H](NC(=O)[C@@H]1CCCN1C(=O)CNC(C)=O)[C@@H](C)O)[C@@H](C)CC)C(N)=O)C(N)=O` (HELM PEPTIDE1{[ac].G.P.T.L.R.E.W.I.S.F.C.[am]}|PEPTIDE2{[ac].G.P.T.L.R.E.W.I.S.F.C.[am]}$PEPTIDE1,PEPTIDE2,12:R3-12:R3$$$V2.0; C-terminus assumed), the IC50 on TPO-R (setting [1]) is at most 500 nM.

In the case of `CC[C@H](C)[C@H](NC(=O)[C@H](Cc1c[nH]c2ccccc12)NC(=O)[C@H](CCC(=O)O)NC(=O)[C@H](CCCNC(=N)N)NC(=O)[C@H](CC(C)C)NC(=O)[C@@H](NC(=O)[C@@H]1CCCN1C(C)=O)[C@@H](C)O)C(=O)N[C@@H](CO)C(=O)N[C@@H](Cc1ccccc1)C(=O)N[C@@H](CSSC[C@H](NC(=O)[C@H](Cc1ccccc1)NC(=O)[C@H](CO)NC(=O)[C@@H](NC(=O)[C@H](Cc1c[nH]c2ccccc12)NC(=O)[C@H](CCC(=O)O)NC(=O)[C@H](CCCNC(=N)N)NC(=O)[C@H](CC(C)C)NC(=O)[C@@H](NC(=O)[C@@H]1CCCN1C(C)=O)[C@@H](C)O)[C@@H](C)CC)C(N)=O)C(N)=O` (HELM PEPTIDE1{[ac].P.T.L.R.E.W.I.S.F.C.[am]}|PEPTIDE2{[ac].P.T.L.R.E.W.I.S.F.C.[am]}$PEPTIDE1,PEPTIDE2,11:R3-11:R3$$$V2.0; C-terminus assumed), the IC50 at TPO-R (setting [1]) was at most 500 nM.

Regarding `CC[C@H](C)[C@H](NC(=O)[C@H](Cc1c[nH]c2ccccc12)NC(=O)[C@H](CCC(=O)O)NC(=O)[C@H](CCCNC(=N)N)NC(=O)[C@H](CC(C)C)NC(=O)[C@@H](NC(C)=O)[C@@H](C)O)C(=O)N[C@@H](CO)C(=O)N[C@@H](Cc1ccccc1)C(=O)N[C@@H](CSSC[C@H](NC(=O)[C@H](Cc1ccccc1)NC(=O)[C@H](CO)NC(=O)[C@@H](NC(=O)[C@H](Cc1c[nH]c2ccccc12)NC(=O)[C@H](CCC(=O)O)NC(=O)[C@H](CCCNC(=N)N)NC(=O)[C@H](CC(C)C)NC(=O)[C@@H](NC(C)=O)[C@@H](C)O)[C@@H](C)CC)C(N)=O)C(N)=O` (HELM PEPTIDE1{[ac].T.L.R.E.W.I.S.F.C.[am]}|PEPTIDE2{[ac].T.L.R.E.W.I.S.F.C.[am]}$PEPTIDE1,PEPTIDE2,10:R3-10:R3$$$V2.0; C-terminus assumed), on TPO-R (setting [1]), the IC50 was 200000 nM.

For `CC[C@H](C)[C@@H]1NC(=O)[C@H](Cc2c[nH]c3ccccc23)NC(=O)[C@H](CCC(=O)O)NC(=O)[C@H](CCCNC(=N)N)NC(=O)[C@H](CC(C)C)NC(=O)[C@H]([C@@H](C)O)NC(=O)[C@@H]2CCCN2C(=O)CNC(=O)[C@H](CC(=O)O)NC(=O)[C@H](C)NC(=O)CSC[C@@H](C(=O)NCC(N)=O)NC(=O)[C@H](Cc2ccccc2)NC(=O)[C@H](CO)NC1=O` [C-term, Gly addition] (HELM PEPTIDE1{[O=C(C[*:3])[*:2]].A.D.G.P.T.L.R.E.W.I.S.F.C.G.[am]}$PEPTIDE1,PEPTIDE1,1:R3-14:R3$$$V2.0; C-terminus assumed), the IC50 on TPO-R (Table 6, read-out: IC50) was at most 500 nM.

Turning to `CC[C@H](C)[C@@H]1NC(=O)[C@H](Cc2c[nH]c3ccccc23)NC(=O)[C@H](CCC(=O)O)NC(=O)[C@H](CCCNC(=N)N)NC(=O)[C@H](CC(C)C)NC(=O)[C@H]([C@@H](C)O)NC(=O)[C@@H]2CCCN2C(=O)CNC(=O)[C@H](CC(=O)O)NC(=O)[C@H](C)NC(=O)CSC[C@@H](C(N)=O)NC(=O)[C@H](C(c2ccccc2)c2ccccc2)NC(=O)[C@H](CO)NC1=O` [F - DiPh-Ala] (HELM PEPTIDE1{[O=C(C[*:3])[*:2]].A.D.G.P.T.L.R.E.W.I.S.[O=C([C@@H](N[*:1])C(c1ccccc1)c1ccccc1)[*:2]].C.[am]}$PEPTIDE1,PEPTIDE1,1:R3-14:R3$$$V2.0; C-terminus assumed), the IC50 at TPO-R (Table 6, read-out: IC50) was at most 500 nM.

As to `CC[C@@H]1NC(=O)[C@H]([C@@H](C)CC)NC(=O)[C@H](Cc2c[nH]c3ccccc23)NC(=O)[C@H](CCC(=O)O)NC(=O)[C@H](CCCNC(=N)N)NC(=O)[C@H](CC(C)C)NC(=O)[C@H]([C@@H](C)O)NC(=O)[C@@H]2CCCN2C(=O)CNC(=O)[C@H](CC(=O)O)NC(=O)[C@H](C)NC(=O)CSC[C@@H](C(N)=O)NC(=O)[C@H](C(c2ccccc2)c2ccccc2)NC1=O` [S,F - Abu, DiPh-Ala] (HELM PEPTIDE1{[O=C(C[*:3])[*:2]].A.D.G.P.T.L.R.E.W.I.[Abu].[O=C([C@@H](N[*:1])C(c1ccccc1)c1ccccc1)[*:2]].C.[am]}$PEPTIDE1,PEPTIDE1,1:R3-14:R3$$$V2.0; C-terminus assumed), the IC50 on TPO-R (Table 6, read-out: IC50) is at most 500 nM.

In the case of “AF 12885 with streptavidin (SA): complexed biotinylated peptide: G G C A D G P T L R E W I S F C G G K (Biotin) preincubated with streptavidin, 4:1 molar ratio”, the “potency of pre-formed streptavidin complex relative to the free peptide” value with human TPO-R (peptide preincubated with streptavidin at 4:1 molar ratio, FIG. 2) was “approximately 10 times”.

For the compound “GNADGPTLRQWLEGRRPKN [G N A D G P T L R Q W L E G R R P K N]”, at TPO-R (setting [2]), the IC50 is at most 500 nM.

Turning to GPTLRQWL [G P T L R Q W L], on TPO-R (setting [2]), the IC50 is above 200000 nM.

Consider “LAIEGPTLRQWLHGNGRDT [L A I E G P T L R Q W L H G N G R D T]”, for which the IC50 at TPO-R (setting [2]) is at most 500 nM.

In the case of “SIEGPTLREWLTSRTPHS [S I E G P T L R E W L T S R T P H S]”, the IC50 on TPO-R (setting [2]) is at most 500 nM.

Consider “TIKGPTLRQWLKSREHTS [T I K G P T L R Q W L K S R E H T S]”, for which the IC50 on TPO-R (setting [2]) was at most 500 nM.

For the origin of these results see US7091311B2, “Peptides and compounds that bind to a receptor” (SmithKline Beecham Corporation, priority 1996, dated 2006).
